Source: patent publication US20240336573A1, “COMPOUND FOR THE TREATMENT AND PROPHYLAXIS OF INFECTIOUS DISEASES” (Eberhard Karls Universität Tübingen Medizinische Fakultät, priority 2021, published 2024)
pKd: −log10 of the molar value. Like-named read-outs stand apart in the source and are kept apart here.

Tests used:
[1] = target: luciferase (Photinus pyralis, UniProt P08659); experiment: Luciferase interference deselection assay (D1); assay type: biochemical; conditions: DRC format
From the text: Starting with approximately 400,000 compounds, a set of 3991 compounds was left for testing in dose response experiments. Due to acquisition of a lower assay window for part of the data obtained during the screening campaign of ELFSC17_02, the data-set was split into P1 and P2 for analysis in ActivityBase. For P1 the initially set criterion of Z-score ≥4 (˜4%) was used for selection of actives and for P2 this selection criterion was adjusted to effect ≥40% (Z-score ˜15). […] In order to reduce this total number of 4205 compounds to a maximum of 4000 compounds allowed to be ordered in serial dilutions for dose response experiments (i.e. 1% of 400,000), the criterion for P1 was changed to Z-score >4.3 gaining 3344 compounds. […] The confirmed actives of ELF program ELFSC17-02 were tested as serial dilutions in the primary assay and deselection assay to generate dose response curves (DRCs). The serial dilutions consisted of 7 equidistant concentration steps (20 μM to 27.4 nM) and were tested in the primary and in the deselection assay in duplo (n=2) in 1536-well format. […] For the luciferase interference deselection assay in DRC-format, luciferase was left out in the Max effect wells, mimicking a 100% effect situation and resulting in a decreased signal. Compounds showing a signal decrease larger than 5 times the standard deviation (Z-score >5) were identified as luciferase […]. […] The ActivityBase application (IDBS) was used to analyze the data and to calculate quality parameters like Z-prime and Signal to Background ratio (S/B). For all compounds the % effect was calculated for all seven concentrations. ActivityBase was also used to calculate the pEC50 and Hill Slope. […] For compounds where no curve was fitted but reached >50% effect at 20 μM the Fit_Max was locked at 100% effect. For compounds where no curve was fitted but reached 100% effect at 20 μM and descended to <50% at 27 nM the Fit_Min was locked at 0%. […] Based on the results of C2 and D1 a list of 383 compounds was created as the preliminary hits, which were evaluated with MST (01). […]

[2] = target: T1, SurA (Escherichia coli, UniProt P0ABZ6); experiment: Microscale thermophoresis at the ELF (O1); assay type: binding, E. coli; design: key to MST score: 1 = binder; 6 = non-binder; conditions: for MST score: score 1-6
T1 sequence (P0ABZ6 21-428): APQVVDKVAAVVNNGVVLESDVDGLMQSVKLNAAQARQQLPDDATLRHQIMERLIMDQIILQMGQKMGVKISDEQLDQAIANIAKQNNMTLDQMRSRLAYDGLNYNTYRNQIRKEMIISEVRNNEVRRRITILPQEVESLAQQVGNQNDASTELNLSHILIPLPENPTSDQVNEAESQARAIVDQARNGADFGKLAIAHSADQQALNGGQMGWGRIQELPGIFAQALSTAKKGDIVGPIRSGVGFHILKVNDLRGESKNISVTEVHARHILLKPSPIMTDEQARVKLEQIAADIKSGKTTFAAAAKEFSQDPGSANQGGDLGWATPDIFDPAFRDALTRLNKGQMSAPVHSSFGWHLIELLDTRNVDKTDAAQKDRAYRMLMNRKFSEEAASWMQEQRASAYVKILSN
Description: (§1) His-tagged SurA was labeled with the Monolith His-Tag Labeling Kit RED-tris-NTA (Nanotemper) according to the manufacturer's instructions.
Microscale thermophoresis measurements at the ELF were performed as follows. Compounds were tested in 8-point curves at a top starting concentration of 100-0.39 μM. […] 12-point dose responses of reference compound were also set up and tested between runs. Final measurement conditions were 40 mM HEPES pH 7.4, 0.1% Pluronic-F127, 50 nM SurA with Monolith settings—40% excitation and 60% MST power. MST data (capillary scan and shape, initial fluorescence and MST traces) were analyzed and a score was given to each compound.

[3] = target: T1, SurA; experiment: Microscale thermophoresis (Tuebingen, Monolith NT.115); assay type: binding, E. coli; conditions: for MST score (Re-evaluation Tuebingen): re-evaluation of QHL compound remainders
Description: as §1
Microscale thermophoresis measurements were performed in 40 mM HEPES pH 7.4, 0.05% Tween-20 at 25° C. with a Monolith NT.115 (NanoTemper) in standard capillaries.

[4] = target: T1, SurA; experiment: nanoDSF thermal shift assay (Prometheus); assay type: binding, E. coli; design: key to nanoDSF pH 5 Ti#1 / nanoDSF pH 5 Ti#2 / nanoDSF pH 7.4 Ti#1 / nanoDSF pH 7.4 Ti#2: An increase of the inflection points in the nanoDSF experiments is indicated by (+); a decrease by (−); no changes with (none); ambiguity with a question mark (?); conditions: for nanoDSF pH 7.4 Ti#1 / nanoDSF pH 7.4 Ti#2: 40 mM HEPES pH 7.4, 150 NaCl; for nanoDSF pH 5 Ti#1 / nanoDSF pH 5 Ti#2: 50 mM HAc pH 5; for Thermal stability of SurA as detected by nanoDSF: resynthesized compounds
Description: To this end, 5 μl of a 2 mM compound solution in DMSO were mixed with 95 μl of a 20 μM SurA solution. Technical triplicate measurements were performed on a Prometheus system (NanoTemper).

[5] = tested on: E. coli ATCC 25922; experiment: Sensitizer MIC assay (vancomycin); assay type: cell-based; conditions: compound concentration of 100 μM
Description: To test for the sensitizer properties of the compounds, the inventors then performed a sensitizer MIC assay. To this end, E. coli BW25113, E. coli JW2496-3, and E. coli ATCC 25922 inocula were prepared as described above. Each well of a 96-well plate was prefilled with a fixed compound concentration of 100 μM and a dilution series of Vancomycin ranging from […]. A sensitizing effect was defined as reduction of the MIC value of Vancomycin of the respective test strain.

[6] = tested on: HepG2 cells; experiment: Cytotoxicity assay (LDH release); assay type: cell-based; conditions: 500 μM compound, 1 h at 37° C., some cells also say precipitate
Description: Cell cytotoxicity of shelf derivatives was evaluated monitoring the LDH release from HepG2 cells using the CytoTox 96@ Non-Radio Cytotoxicity Assay (Promega) according to the manufacturer's instructions. […] After incubation, 25 μl were transferred into a fresh 96-well flat clear bottom plate and mixed with 25 μl CytoTox 96@ Reagent. LDH release reactions were incubated 30 min at RT in the dark and 25 μl Stop Solution were added. LDH release was measured at 490 nm in a multiplate reader.

Sequence of luciferase (P08659 whole entry): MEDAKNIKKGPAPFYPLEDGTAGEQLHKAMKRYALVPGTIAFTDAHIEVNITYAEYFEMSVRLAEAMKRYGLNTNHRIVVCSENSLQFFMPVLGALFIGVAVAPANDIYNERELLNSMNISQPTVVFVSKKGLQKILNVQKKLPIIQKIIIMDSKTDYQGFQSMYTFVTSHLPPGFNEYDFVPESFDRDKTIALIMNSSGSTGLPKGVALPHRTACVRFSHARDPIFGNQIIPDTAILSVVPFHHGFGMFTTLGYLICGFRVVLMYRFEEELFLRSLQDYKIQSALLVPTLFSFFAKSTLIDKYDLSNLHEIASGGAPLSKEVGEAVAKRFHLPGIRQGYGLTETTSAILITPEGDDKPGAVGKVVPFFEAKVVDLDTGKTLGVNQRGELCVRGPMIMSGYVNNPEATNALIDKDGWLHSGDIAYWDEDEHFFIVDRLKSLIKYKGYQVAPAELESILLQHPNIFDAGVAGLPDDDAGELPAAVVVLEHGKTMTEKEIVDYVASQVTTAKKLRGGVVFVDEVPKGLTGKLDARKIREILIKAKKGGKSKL

In the case of `NC(=O)c1nc(Cc2ccc(OCC(=O)O)cc2)[nH]c1NC(=O)c1ccc(-c2ccccc2)cc1` [Compound 2a, 2-(4-((5-([1,1′-biphenyl]-4-carboxamido)-4-carbamoyl-1H-imidazol-2-yl)methyl)phenoxy)acetic acid], the “Deselection (D1) pIC50” value ([1]; listed as QHL-10) was 5.16, the IC50 ([1]; read-out: Deselection (D1) pIC50 (converted)) was 6.92 µM and the IC50 ([2]; 8-point curves 100-0.39 μM, 50 nM SurA, read-out: MST pIC50 (converted)) was 39.8 µM. The MST score [2] was 1, the “MST (Kd in mM)” value [3] was “binding” and the “MST score (Re-evaluation Tuebingen)” value [3] was 2. The “MST (KD)” value ([3]; resynthesized compounds) was “binding”, the “nanoDSF pH 7.4 Ti#1” value [4] was “none” and the “nanoDSF pH 7.4 Ti#2” value [4] was “−”. The “nanoDSF pH 5 Ti#1” value [4] was “+”, the “nanoDSF pH 5 Ti#2” value [4] was “−” and the “Thermal stability of SurA as detected by nanoDSF” value [4] was “affected the thermal stability of SurA”. For the same compound, the “MIC (reduction of vancomycin MIC)” value [5] was “yes (reduction of the MIC for vancomycin of the E. coli ATCC 25922 strain below 256 mg/l at a compound concentration of 100 μM (yes/no))” and the CytoTox [6] was 50.23%.
`CN(C)c1ccc(-c2nc3cc(NC(=O)Cn4cc5ccccc5n4)ccc3[nH]2)cc1` [QHL-24] was tested, and the “Deselection (D1) pIC50” value [1] was 4.42, the MST score [2] was 1 and the “MST score (Re-evaluation Tuebingen)” value [3] was “inconclusive”. For the same compound, the Kd ([3]; read-out: MST (Kd in mM)) was 0.02 to 0.03 mM, the “MST (KD)” value ([3]; resynthesized compounds) was “binding” and the pKd ([3]; resynthesized compounds, read-out: MST (KD)) was 4.52 to 4.70. For the same compound, the “nanoDSF pH 7.4 Ti#1” value [4] was “none”, the “nanoDSF pH 7.4 Ti#2” value [4] was “−” and the “nanoDSF pH 5 Ti#1” value [4] was “none”. The “nanoDSF pH 5 Ti#2” value [4] was “+”, the “Thermal stability of SurA as detected by nanoDSF” value [4] was “affected the thermal stability of SurA” and the “MIC (reduction of vancomycin MIC)” value [5] was “yes (reduction of the MIC for vancomycin of the E. coli ATCC 25922 strain below 256 mg/l at a compound concentration of 100 μM (yes/no))”. The CytoTox [6] was “precipitate (7.87%)”.
